Columns and labels:
Assay in all cases: Protein kinase inhibition assay
Assay type in all cases: biochemical
Abl(T315I)(h) = Abl(T315I)(h) (Homo sapiens, UniProt P00519, T315I); conditions: read-out: percent residual activity of Abl(T315I)(h)
Experimental: (§1) Certain compounds were tested for activity in protein kinase inhibition assays. All substrates were dissolved and diluted to working stocks in de-ionized water, apart from histone H1 (10× working stock in 20 mM MOPS pH 7.0), PDKtide (10× working stock in 50 mM Tris pH 7.0) ATF2 (which is typically stored at a 20× working stock in 50 mM Tris pH 7.5, 150 mM NaCl, 0.1 mM EGTA, 0.03% Brij-35, 50% glycerol, 1 mM benzamidine, 0.2 mM PMSF and 0.1% R-mercaptoethanol), KKLNRTLSFAEPG (SEQ ID NO:203) and RRRLSFAEPG (SEQ ID NO:204) (50 mM HEPES pH 7.4) and GGEEEEYFELVKKKK (SEQ ID NO:205) (20 mM MOPS pH 7.0). All kinases were pre-diluted to a 10× working concentration prior to addition into the assay. The composition of the dilution buffer for each kinase is detailed below.
(§2) In a final reaction volume of 25 μl, Abl (T3151) (h) (5-10 mU) is incubated with 8 mM MOPS pH 7.0, 0.2 mM EDTA, 50 μM EAIYAAPFAKKK (SEQ ID NO:206), 10 mM MgAcetate and [gamma-33P-ATP] (specific activity approx. 500 cpm/pmol, concentration as required). The reaction is initiated by the addition of the MgATP mix. After incubation for 40 minutes at room temperature, the reaction is stopped by the addition of 5 μl of a 3% phosphoric acid solution. 10 μl of the reaction is then spotted onto a P30 filtermat and washed three times for 5 minutes in 75 mM phosphoric acid and once in methanol prior to drying and scintillation counting.

CDK5/p35(h) = CDK5/p35(h) (Homo sapiens, UniProt Q00535); conditions: read-out: percent residual activity of CDK5/p35(h)
Sequence of CDK5/p35(h) (Q00535 whole entry): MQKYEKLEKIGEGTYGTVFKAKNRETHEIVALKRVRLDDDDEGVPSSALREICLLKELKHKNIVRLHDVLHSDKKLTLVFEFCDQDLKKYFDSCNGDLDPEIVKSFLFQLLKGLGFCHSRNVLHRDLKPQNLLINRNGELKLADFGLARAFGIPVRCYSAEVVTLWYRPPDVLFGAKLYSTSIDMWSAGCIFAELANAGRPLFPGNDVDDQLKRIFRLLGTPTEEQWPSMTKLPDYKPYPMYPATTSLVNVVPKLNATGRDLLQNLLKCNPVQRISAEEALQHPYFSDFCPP
Sequence of CDK5/p35(h) (Q15078 whole entry partner): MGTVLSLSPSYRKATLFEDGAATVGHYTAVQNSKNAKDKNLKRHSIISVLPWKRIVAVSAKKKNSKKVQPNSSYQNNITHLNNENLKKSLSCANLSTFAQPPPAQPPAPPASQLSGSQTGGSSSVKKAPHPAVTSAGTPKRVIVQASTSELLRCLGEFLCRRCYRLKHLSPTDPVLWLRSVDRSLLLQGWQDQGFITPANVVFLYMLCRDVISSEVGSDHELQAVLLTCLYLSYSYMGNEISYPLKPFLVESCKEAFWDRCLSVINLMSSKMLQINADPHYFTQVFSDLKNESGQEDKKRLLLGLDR
Experimental: as §1
as §2, with “CDK5/p35” for “Abl (T3151)”, “0.1 mg/ml histone H1,” for “50 μM EAIYAAPFAKKK (SEQ ID NO:206),”

CDK7/cyclinH/MAT1(h) = CDK7/cyclinH/MAT1(h) (Homo sapiens, UniProt P50613); conditions: read-out: percent residual activity of CDK7/cyclinH/MAT1(h)
Sequence of CDK7/cyclinH/MAT1(h) (P50613 whole entry): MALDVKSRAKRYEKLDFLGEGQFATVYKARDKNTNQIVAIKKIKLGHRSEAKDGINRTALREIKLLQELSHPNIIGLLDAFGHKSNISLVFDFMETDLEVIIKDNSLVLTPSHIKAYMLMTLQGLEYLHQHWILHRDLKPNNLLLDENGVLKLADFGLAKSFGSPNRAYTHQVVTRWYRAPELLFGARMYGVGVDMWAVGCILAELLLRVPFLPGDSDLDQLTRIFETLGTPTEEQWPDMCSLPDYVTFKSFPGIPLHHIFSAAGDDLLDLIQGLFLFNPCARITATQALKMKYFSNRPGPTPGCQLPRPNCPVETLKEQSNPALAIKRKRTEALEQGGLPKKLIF
Sequence of CDK7/cyclinH/MAT1(h) (P51946 whole entry partner): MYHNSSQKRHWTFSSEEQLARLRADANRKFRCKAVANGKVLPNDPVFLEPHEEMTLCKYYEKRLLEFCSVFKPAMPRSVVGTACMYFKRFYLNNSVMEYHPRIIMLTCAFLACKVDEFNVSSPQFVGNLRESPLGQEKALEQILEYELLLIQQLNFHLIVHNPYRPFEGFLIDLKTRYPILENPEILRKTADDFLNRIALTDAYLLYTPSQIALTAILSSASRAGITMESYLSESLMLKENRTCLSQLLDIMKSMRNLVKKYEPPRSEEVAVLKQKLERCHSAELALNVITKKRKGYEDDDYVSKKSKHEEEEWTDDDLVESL
Sequence of CDK7/cyclinH/MAT1(h) (P51948 whole entry partner): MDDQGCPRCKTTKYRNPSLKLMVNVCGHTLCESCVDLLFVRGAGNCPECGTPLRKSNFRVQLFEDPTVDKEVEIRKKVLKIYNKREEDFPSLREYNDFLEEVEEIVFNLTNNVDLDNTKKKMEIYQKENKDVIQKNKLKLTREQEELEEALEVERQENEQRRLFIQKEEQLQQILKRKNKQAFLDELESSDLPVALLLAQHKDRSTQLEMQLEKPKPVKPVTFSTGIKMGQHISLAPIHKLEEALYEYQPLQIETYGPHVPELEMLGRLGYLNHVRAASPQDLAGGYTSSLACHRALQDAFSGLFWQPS
Experimental: as §1
as §2, with “μl, CDK7/cyclinH/MAT1” for “μl, Abl (T3151)”, “EDTA, 500” for “EDTA, 50”, “μM peptide,” for “μM EAIYAAPFAKKK (SEQ ID NO:206),”, “and [y-33P-ATP]” for “and [gamma-33P-ATP]”

EphB4(h) = EphB4(h) (Homo sapiens, UniProt P54760); conditions: read-out: percent residual activity of EphB4(h)
Sequence of EphB4(h) (P54760 16-987): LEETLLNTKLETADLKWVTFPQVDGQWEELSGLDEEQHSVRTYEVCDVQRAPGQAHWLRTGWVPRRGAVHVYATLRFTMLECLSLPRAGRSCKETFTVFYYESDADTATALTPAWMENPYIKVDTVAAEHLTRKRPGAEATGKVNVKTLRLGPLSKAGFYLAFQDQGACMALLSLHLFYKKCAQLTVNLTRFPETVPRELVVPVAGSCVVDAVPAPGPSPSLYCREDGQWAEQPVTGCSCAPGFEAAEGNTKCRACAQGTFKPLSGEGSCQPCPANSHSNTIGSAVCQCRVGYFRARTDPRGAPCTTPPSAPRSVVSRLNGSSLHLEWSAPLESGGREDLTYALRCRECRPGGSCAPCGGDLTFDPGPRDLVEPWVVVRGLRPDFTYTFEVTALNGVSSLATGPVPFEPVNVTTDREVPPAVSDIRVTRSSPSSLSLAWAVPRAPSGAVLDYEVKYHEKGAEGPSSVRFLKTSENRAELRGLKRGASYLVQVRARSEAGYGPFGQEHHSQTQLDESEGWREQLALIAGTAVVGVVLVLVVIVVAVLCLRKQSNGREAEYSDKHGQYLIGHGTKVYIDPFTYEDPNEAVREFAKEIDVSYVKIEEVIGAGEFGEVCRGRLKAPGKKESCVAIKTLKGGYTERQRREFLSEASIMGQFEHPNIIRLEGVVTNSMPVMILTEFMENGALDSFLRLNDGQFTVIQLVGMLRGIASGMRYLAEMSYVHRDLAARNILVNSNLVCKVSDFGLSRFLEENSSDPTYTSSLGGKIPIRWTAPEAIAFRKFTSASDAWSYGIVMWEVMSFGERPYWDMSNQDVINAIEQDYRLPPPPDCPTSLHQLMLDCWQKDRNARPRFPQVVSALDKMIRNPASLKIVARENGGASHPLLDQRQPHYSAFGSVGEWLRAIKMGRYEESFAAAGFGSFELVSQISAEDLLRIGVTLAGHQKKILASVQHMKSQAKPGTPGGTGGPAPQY
Experimental: as §1
as §2, with “EphB4” for “Abl (T3151)”, “10 mM MnCl2, 0.1 mg/ml poly(Glu, Tyr) 4:1,” for “50 μM EAIYAAPFAKKK (SEQ ID NO:206),”, “Filtermat A” for “P30 filtermat”

PKCβII(h) = PKCβII(h) (Homo sapiens, UniProt P05771); conditions: read-out: percent residual activity of PKCβII(h)
Sequence of PKCβII(h) (P05771 1-673 isoform P05771-2): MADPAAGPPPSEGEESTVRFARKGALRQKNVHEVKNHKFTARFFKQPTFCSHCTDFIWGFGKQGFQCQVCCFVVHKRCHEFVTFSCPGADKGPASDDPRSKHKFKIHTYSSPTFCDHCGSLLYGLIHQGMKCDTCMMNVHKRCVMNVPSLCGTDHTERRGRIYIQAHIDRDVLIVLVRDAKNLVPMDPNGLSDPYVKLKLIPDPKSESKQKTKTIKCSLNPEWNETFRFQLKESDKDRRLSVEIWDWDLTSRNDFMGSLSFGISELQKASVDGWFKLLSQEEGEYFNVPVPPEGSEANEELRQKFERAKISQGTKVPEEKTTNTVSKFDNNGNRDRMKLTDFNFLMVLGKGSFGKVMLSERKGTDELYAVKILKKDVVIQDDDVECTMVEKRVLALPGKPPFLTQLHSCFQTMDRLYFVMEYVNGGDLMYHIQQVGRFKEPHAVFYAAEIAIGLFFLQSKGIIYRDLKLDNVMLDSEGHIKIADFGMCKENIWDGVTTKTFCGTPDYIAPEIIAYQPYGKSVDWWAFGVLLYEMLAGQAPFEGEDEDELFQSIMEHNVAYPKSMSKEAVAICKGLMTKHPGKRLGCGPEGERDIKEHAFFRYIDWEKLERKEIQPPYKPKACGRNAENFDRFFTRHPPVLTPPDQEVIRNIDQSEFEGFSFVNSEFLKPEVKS
Experimental: as §1
In a final reaction volume of 25 μl, PKCβII (h) (5-10 mU) is incubated with 20 mM HEPES pH 7.4, 0.03% Triton X-100, […], 0.1 mg/ml phosphatidylserine, 10 μg/ml diacylglycerol, 0.1 mg/ml histone H1, 10 mM MgAcetate and [gamma-33P-ATP] (specific activity approx. 500 cpm/pmol, concentration as required). The reaction is initiated by the addition of the MgATP mix. After incubation for 40 minutes at room temperature, the reaction is stopped by the addition of 5 μl of a 3% phosphoric acid solution. […]

PRAK(h) = PRAK(h) (Homo sapiens, UniProt Q8IW41); conditions: read-out: percent residual activity of PRAK(h)
Sequence of PRAK(h) (Q8IW41 whole entry): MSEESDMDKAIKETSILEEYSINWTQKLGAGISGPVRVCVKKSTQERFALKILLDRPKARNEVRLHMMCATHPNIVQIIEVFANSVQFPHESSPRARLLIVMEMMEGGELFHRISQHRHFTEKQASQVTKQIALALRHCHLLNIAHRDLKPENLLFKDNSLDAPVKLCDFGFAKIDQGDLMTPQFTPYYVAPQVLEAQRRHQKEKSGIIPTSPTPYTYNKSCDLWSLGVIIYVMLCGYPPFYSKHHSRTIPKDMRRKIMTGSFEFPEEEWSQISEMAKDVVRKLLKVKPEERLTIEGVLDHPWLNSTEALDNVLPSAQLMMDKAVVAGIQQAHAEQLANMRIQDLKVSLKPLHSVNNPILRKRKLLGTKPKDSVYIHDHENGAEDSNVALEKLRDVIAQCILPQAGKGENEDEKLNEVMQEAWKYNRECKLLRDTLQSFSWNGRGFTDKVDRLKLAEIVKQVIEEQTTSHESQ
Experimental: as §1
In a final reaction volume of 25 μl, PRAK (h) (5-10 mU) is incubated with 50 mM Na R-glycerophosphate pH 7.5, 0.1 mM EGTA, 30 μM KKLRRTLSVA (SEQ ID NO:212), 10 mM MgAcetate and [gamma-33P-ATP) (specific activity approx. 500 cpm/pmol, concentration as required). The reaction is initiated by the addition of the MgATP mix. After incubation for 40 minutes at room temperature, the reaction is stopped by the addition of 5 μl of a 3% phosphoric acid solution. […]

SMILES	remaining activity at 2.5 µM (Abl(T315I)(h)) [%]	remaining activity at 2.5 µM (CDK5/p35(h)) [%]	remaining activity at 2.5 µM (CDK7/cyclinH/MAT1(h)) [%]	remaining activity at 2.5 µM (EphB4(h)) [%]	remaining activity at 2.5 µM (PKCβII(h)) [%]	remaining activity at 2.5 µM (PRAK(h)) [%]
CN1CCCC1CCNC(=O)c1cn2c3c(c(N4CCC(c5cnccn5)C4)c(F)cc3c1=O)Oc1cc3ccccc3cc1-2 (stereo not drawn) [Compound A-1]	52	83	72	96	94	105
CC(=O)N1CCN(c2ccc3c(=O)c(C(=O)NCCN4CCCC4)c4n(C)c5ccccc5n4c3n2)CC1 [Compound B-1]	106	104	95	108	99	111

— patent US20070117770A1, “Human ribosomal DNA (rDNA) and ribosomal RNA (rRNA) nucleic acids and uses thereof” (Cylene Pharmaceuticals, Inc., priority 2005, published 2007)
